Assay [1] concerns the target T1, CRF2R (Homo sapiens, UniProt Q13324).
T1 sequence (Q13324 1-411): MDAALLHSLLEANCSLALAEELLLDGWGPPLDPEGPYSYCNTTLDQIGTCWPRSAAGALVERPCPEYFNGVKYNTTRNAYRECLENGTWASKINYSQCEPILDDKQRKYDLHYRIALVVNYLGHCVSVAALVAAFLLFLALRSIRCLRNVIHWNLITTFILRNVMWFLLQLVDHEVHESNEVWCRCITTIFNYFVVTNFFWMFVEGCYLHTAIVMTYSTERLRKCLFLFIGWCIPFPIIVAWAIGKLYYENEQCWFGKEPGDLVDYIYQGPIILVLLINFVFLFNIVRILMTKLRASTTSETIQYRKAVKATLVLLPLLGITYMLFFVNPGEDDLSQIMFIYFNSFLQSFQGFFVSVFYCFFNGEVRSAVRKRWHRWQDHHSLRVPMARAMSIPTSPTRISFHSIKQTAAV
Description: CRF2R agonist activity (EC50, Emax), called comparative CRF binding. It is filed as cell-based. The following applies: read-out: CRF2R EC50. In a few lines: (§1)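 Cells expressing only CRF1R or CRF2R (recombinant, or with the other receptor disabled or its signal subtracted) were treated with peptide or vehicle control. Activation was read as cAMP induction in cell lysates or via a cAMP-responsive-element reporter gene.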

For assay [2], the target named is T2, CRF1R (Homo sapiens, UniProt P34998).
T2 sequence (P34998 24-415): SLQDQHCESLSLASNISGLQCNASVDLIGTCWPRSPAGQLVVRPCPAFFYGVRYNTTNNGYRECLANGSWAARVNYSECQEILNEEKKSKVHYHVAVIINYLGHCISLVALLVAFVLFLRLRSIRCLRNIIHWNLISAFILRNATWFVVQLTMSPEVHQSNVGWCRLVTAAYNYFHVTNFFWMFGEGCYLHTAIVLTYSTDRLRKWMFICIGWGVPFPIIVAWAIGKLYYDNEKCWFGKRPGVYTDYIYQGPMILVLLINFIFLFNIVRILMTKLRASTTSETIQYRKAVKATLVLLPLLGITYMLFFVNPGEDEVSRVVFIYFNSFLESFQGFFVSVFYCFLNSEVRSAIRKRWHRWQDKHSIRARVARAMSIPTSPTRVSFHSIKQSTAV
Description: CRF1R agonist activity (EC50, Emax), called comparative CRF binding. It is filed as cell-based. The following applies: read-out: CRF1R EC50. In a few lines: as §1

Data on eight molecules can be found in patent US7192924B2, “Corticotropin releasing factor 2 receptor agonists” (priority 2002, dated 2007).

Ends that are not written are not given here. Peptide text beside a SMILES is read from it. A value given as a limit tells only on which side of the number the result lay.

As to `CC[C@H](C)[C@H](NC(=O)[C@H](C)NC(=O)[C@H](CC(N)=O)NC(=O)[C@H](CCC(N)=O)NC(=O)[C@H](CCC(=O)O)NC(=O)[C@H](C)NC(=O)[C@H](CCCNC(=N)N)NC(=O)[C@H](CCC(=O)O)NC(=O)[C@H](CCCNC(=N)N)NC(=O)[C@H](CCC(N)=O)NC(=O)[C@H](CO)NC(=O)[C@H](CCC(N)=O)NC(=O)[C@@H](NC(=O)[C@H](CCCCN)NC(=O)[C@H](CCC(=O)O)NC(=O)[C@H](CC(C)C)NC(=O)[C@H](CCC(=O)O)NC(=O)[C@H](CC(C)C)NC(=O)[C@H](CC(C)C)NC(=O)[C@@H](NC(=O)[C@H](CCCNC(=N)N)NC(=O)[C@H](CC(C)C)NC(=O)[C@H](CC(C)C)NC(=O)[C@H](CC(C)C)NC(=O)[C@H](CC(C)C)NC(=O)[C@@H]1CCCN1C(=O)[C@H](CC(C)C)NC(=O)[C@H](CC(=O)O)NC(=O)[C@@H](NC(=O)[C@H](CO)NC(=O)[C@H](CC(C)C)NC(=O)[C@H](CO)NC(=O)[C@@H]1CCCN1)[C@@H](C)CC)[C@@H](C)O)[C@@H](C)O)C(=O)N[C@H](C(=O)N[C@@H](Cc1ccccc1)C(=O)N[C@@H](C)C(=O)N[C@@H](CO)C(=O)N[C@H](C(N)=O)C(C)C)[C@@H](C)CC` [compound 344] (H-PSLSIDLPLLLLRTLLELEKTQSQRERAEQNAIIFASV-NH2), the EC50 stood at 4.3 nM in assay [1] and 650 nM in assay [2].

For the molecule `CC[C@H](C)[C@H](N)C(=O)N[C@H](C(=O)N[C@@H](CC(C)C)C(=O)N[C@@H](CO)C(=O)N[C@@H](CC(C)C)C(=O)N[C@@H](CC(=O)O)C(=O)N[C@H](C(=O)N1CCC[C@H]1C(=O)N[C@H](C(=O)NCC(=O)N[C@@H](CC(C)C)C(=O)N[C@@H](CC(C)C)C(=O)N[C@@H](CCC(N)=O)C(=O)N[C@@H](CCC(=O)O)C(=O)N[C@@H](CC(C)C)C(=O)N[C@@H](CC(C)C)C(=O)N[C@@H](CCC(=O)O)C(=O)N[C@@H](CCSC)C(=O)N[C@@H](C)C(=O)N[C@@H](CCCNC(=N)N)C(=O)N[C@@H](C)C(=O)N[C@@H](CCC(=O)O)C(=O)N[C@@H](CCC(N)=O)C(=O)N[C@@H](CC(C)C)C(=O)N[C@@H](C)C(=O)N[C@@H](CCC(N)=O)C(=O)N[C@@H](CCC(N)=O)C(=O)N[C@@H](C)C(=O)N[C@@H](Cc1c[nH]cn1)C(=O)N[C@@H](CO)C(=O)N[C@@H](CC(N)=O)C(=O)N[C@@H](CCCNC(=N)N)C(=O)N[C@@H](CCCCN)C(=O)N[C@@H](CC(C)C)C(=O)N[C@@H](CCSC)C(=O)N[C@@H](CCC(=O)O)C(=O)N[C@H](C(=O)N[C@H](C(N)=O)[C@@H](C)CC)[C@@H](C)CC)[C@@H](C)CC)C(C)C)C(C)C` [compound 1] (H-IVLSLDVPIGLLQELLEMARAEQLAQQAHSNRKLMEII-NH2; N-terminus assumed), the EC50 was 31.5 nM in assay [1] and 783 nM in assay [2].

For “HHHHHHIVLSLDVPIGLLQILLEQARARAAREQATTNARILARN-NH2 [compound 296]”, the EC50 in assay [1] was 6.66 nM; in assay [2], ≥ 100 nM.

Turning to `CC[C@H](C)[C@H](N)C(=O)N[C@H](C(=O)N[C@@H](CC(C)C)C(=O)N[C@@H](CO)C(=O)N[C@@H](CC(C)C)C(=O)N[C@@H](CC(=O)O)C(=O)N[C@H](C(=O)N1CCC[C@H]1C(=O)N[C@H](C(=O)NCC(=O)N[C@@H](CC(C)C)C(=O)N[C@@H](CC(C)C)C(=O)N[C@@H](CCC(N)=O)C(=O)N[C@H](C(=O)N[C@@H](CC(C)C)C(=O)N[C@@H](CC(C)C)C(=O)N[C@@H](CCC(=O)O)C(=O)N[C@@H](CCC(N)=O)C(=O)N[C@@H](CCC(=O)O)C(=O)N[C@@H](CCCCN)C(=O)N[C@@H](CCC(N)=O)C(=O)N[C@@H](CCC(=O)O)C(=O)N[C@@H](CCCCN)C(=O)N[C@@H](CCC(=O)O)C(=O)N[C@@H](CCCCN)C(=O)N[C@@H](CCC(N)=O)C(=O)N[C@@H](CCC(N)=O)C(=O)N[C@@H](C)C(=O)N[C@H](C(=O)N[C@H](C(=O)N[C@@H](CC(N)=O)C(=O)N[C@@H](C)C(=O)N[C@@H](CCCNC(=N)N)C(=O)N[C@H](C(=O)N[C@@H](CC(C)C)C(=O)N[C@@H](C)C(=O)N[C@@H](CCCNC(=N)N)C(=O)N[C@H](C(N)=O)C(C)C)[C@@H](C)CC)[C@@H](C)O)[C@@H](C)O)[C@@H](C)CC)[C@@H](C)CC)C(C)C)C(C)C` [compound 167] (H-IVLSLDVPIGLLQILLEQEKQEKEKQQATTNARILARV-NH2; N-terminus assumed), the EC50 in assay [1] was 13 nM; in assay [2], ≥ 1000 nM.

On to `CC[C@H](C)[C@H](NC(=O)[C@H](C)NC(=O)[C@H](CC(N)=O)NC(=O)[C@H](CCC(N)=O)NC(=O)[C@H](CCC(=O)O)NC(=O)[C@H](C)NC(=O)[C@H](CCCNC(=N)N)NC(=O)[C@H](CCC(=O)O)NC(=O)[C@H](CCCNC(=N)N)NC(=O)[C@H](CCC(N)=O)NC(=O)[C@H](CO)NC(=O)[C@H](CCC(N)=O)NC(=O)[C@@H](NC(=O)[C@H](CCCNC(=N)N)NC(=O)[C@H](C)NC(=O)[C@H](CC(C)C)NC(=O)[C@H](CCC(=O)O)NC(=O)[C@H](CC(C)C)NC(=O)[C@H](CC(C)C)NC(=O)[C@@H](NC(=O)[C@H](CCCNC(=N)N)NC(=O)[C@H](CC(C)C)NC(=O)[C@H](CC(C)C)NC(=O)[C@H](CC(C)C)NC(=O)[C@H](CC(C)C)NC(=O)[C@@H]1CCCN1C(=O)[C@H](CC(C)C)NC(=O)[C@H](CC(=O)O)NC(=O)[C@@H](NC(=O)[C@H](CO)NC(=O)[C@H](CC(C)C)NC(=O)[C@H](CO)NC(=O)[C@@H]1CCCN1C(=O)[C@H](CC(N)=O)NC(=O)[C@@H](N)CC(=O)O)[C@@H](C)CC)[C@@H](C)O)[C@@H](C)O)C(=O)N[C@H](C(=O)N[C@@H](Cc1ccccc1)C(=O)N[C@@H](C)C(=O)N[C@@H](CO)C(=O)N[C@H](C(N)=O)C(C)C)[C@@H](C)CC` [compound 174] (H-DNPSLSIDLPLLLLRTLLELARTQSQRERAEQNAIIFASV-NH2; N-terminus assumed), for which the EC50 in assay [1] is 4.42 nM; in assay [2], ≥ 1000 nM.

Consider `CC[C@H](C)[C@H](NC(=O)[C@H](C)NC(=O)[C@H](CC(N)=O)NC(=O)[C@H](CCC(N)=O)NC(=O)[C@H](CCC(=O)O)NC(=O)[C@H](C)NC(=O)[C@H](CCCNC(=N)N)NC(=O)[C@H](CCC(=O)O)NC(=O)[C@H](CCCNC(=N)N)NC(=O)[C@H](CCC(N)=O)NC(=O)[C@H](CO)NC(=O)[C@H](CCC(N)=O)NC(=O)[C@@H](NC(=O)[C@H](CCCCN)NC(=O)[C@H](CCC(=O)O)NC(=O)[C@H](CC(C)C)NC(=O)[C@H](CCC(=O)O)NC(=O)[C@H](CC(C)C)NC(=O)[C@H](CC(C)C)NC(=O)[C@@H](NC(=O)[C@H](CCCNC(=N)N)NC(=O)[C@H](CC(C)C)NC(=O)[C@H](CC(C)C)NC(=O)[C@H](Cc1ccccc1)NC(=O)[C@H](CC(C)C)NC(=O)[C@@H]1CCCN1C(=O)[C@H](CC(C)C)NC(=O)[C@H](CC(=O)O)NC(=O)[C@@H](NC(=O)[C@H](CO)NC(=O)[C@H](CC(C)C)NC(=O)[C@H](CO)NC(=O)[C@@H]1CCCN1C(=O)[C@H](CC(N)=O)NC(=O)[C@@H](N)CC(=O)O)[C@@H](C)CC)[C@@H](C)O)[C@@H](C)O)C(=O)N[C@H](C(=O)N[C@@H](Cc1ccccc1)C(=O)N[C@@H](C)C(=O)N[C@@H](CO)C(=O)N[C@H](C(N)=O)C(C)C)[C@@H](C)CC` [compound 343] (H-DNPSLSIDLPLFLLRTLLELEKTQSQRERAEQNAIIFASV-NH2; N-terminus assumed), for which the EC50 in assay [1] was 13.6 nM; in assay [2], 783 nM.

Take “SQEPPISLDLTFHLLREVLEQARARAAREQATTNARILARV-NH2 [compound 157]”: the EC50 was 42 nM in assay [1] and ≥ 100 nM in assay [2].

With “NDDPPISIDLPLHLLRNMIEMARIENEREQAGLNAKYLAEV-NH2 [compound 259]”, the EC50 is ≥ 100 nM in assay [1] and 820 nM in assay [2].
